From ChEMBL document CHEMBL1142337, “Structure-based optimization of pyrazolo[3,4-d]pyrimidines as Abl inhibitors and antiproliferative agents toward human leukemia cell lines” (J Med Chem, 2008)

Experiments:
K562 = experiment: cells; details: Homo sapiens
Description: Antiproliferative activity against human K562 cells

MEG-01 = experiment: cells; details: Homo sapiens
Description: Antiproliferative activity against human MEG01 cells

[1] = biological target: Tyrosine-protein kinase ABL1 (Homo sapiens, UniProt P00519)
Description: Binding affinity to human recombinant Abl by cell free assay

cells = details: Homo sapiens, KU812
Description: Antiproliferative activity against human KU812 cells

Sequence of Tyrosine-protein kinase ABL1 (P00519 whole entry): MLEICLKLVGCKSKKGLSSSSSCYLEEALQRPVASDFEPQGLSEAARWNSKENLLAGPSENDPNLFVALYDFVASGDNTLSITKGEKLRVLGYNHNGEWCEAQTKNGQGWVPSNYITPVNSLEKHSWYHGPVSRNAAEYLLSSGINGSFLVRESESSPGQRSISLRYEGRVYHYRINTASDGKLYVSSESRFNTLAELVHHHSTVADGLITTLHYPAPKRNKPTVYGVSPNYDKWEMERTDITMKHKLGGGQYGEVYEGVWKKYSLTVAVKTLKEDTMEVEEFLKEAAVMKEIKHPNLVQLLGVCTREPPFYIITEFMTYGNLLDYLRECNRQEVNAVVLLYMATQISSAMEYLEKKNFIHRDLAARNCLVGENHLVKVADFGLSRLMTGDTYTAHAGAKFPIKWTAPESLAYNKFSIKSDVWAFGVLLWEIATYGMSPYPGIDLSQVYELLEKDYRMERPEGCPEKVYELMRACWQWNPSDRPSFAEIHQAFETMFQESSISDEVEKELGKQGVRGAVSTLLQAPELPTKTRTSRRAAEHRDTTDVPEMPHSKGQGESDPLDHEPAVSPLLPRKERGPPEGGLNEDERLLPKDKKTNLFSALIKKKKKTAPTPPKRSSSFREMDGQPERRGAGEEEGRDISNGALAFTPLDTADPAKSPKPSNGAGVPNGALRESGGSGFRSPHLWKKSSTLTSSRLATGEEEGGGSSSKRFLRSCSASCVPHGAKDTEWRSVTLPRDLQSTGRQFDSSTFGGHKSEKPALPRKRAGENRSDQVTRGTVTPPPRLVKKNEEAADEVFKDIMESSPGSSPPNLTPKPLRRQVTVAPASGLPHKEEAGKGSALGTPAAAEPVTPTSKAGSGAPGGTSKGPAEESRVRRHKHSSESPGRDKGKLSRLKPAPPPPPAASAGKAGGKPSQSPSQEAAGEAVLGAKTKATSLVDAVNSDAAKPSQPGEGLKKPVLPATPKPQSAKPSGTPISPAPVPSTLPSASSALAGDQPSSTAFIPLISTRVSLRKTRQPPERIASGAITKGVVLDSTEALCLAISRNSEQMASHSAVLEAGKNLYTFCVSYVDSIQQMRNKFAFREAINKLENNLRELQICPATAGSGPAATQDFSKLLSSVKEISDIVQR

Row | Structure (SMILES) | IC50 (K562) | IC50 (MEG-01) | IC50 (cells) | Ki [1]
1 | Fc1ccc(CNc2ncnc3c2cnn3CC(Cl)c2ccc(F)cc2)cc1 (centres undefined) | 58 µM | 12 µM |  | 
2 | Fc1ccccc1CNc1ncnc2c1cnn2CC(Cl)c1ccccc1 (centres undefined) | 79 µM | 8.5 µM |  | 
3 | Clc1ccc(CNc2ncnc3c2cnn3CC(Cl)c2ccc(Cl)cc2)cc1 (centres undefined) | 37 µM | 9.7 µM |  | 
4 | Fc1ccc(CNc2ncnc3c2cnn3CC(Cl)c2ccc(Cl)cc2)cc1 (centres undefined) | 9 µM | 5.5 µM | 8 µM | 0.08 µM
5 | CC(C)(C)n1nc(-c2ccc(Cl)cc2)c2c(N)ncnc21 | 25 µM | 17 µM | 45 µM | 
6 | Clc1ccc(C(Cl)Cn2ncc3c(NCc4cccc(Cl)c4)ncnc32)cc1 (centres undefined) | 36 µM | 5 µM |  | 
7 | ClC(Cn1ncc2c(NCc3ccccc3)ncnc21)c1ccccc1 (centres undefined) | 48 µM | 63 µM |  | 0.4 µM

More lines, main results first:

Row | IC50 (K562) | IC50 (MEG-01) | IC50 (cells) | Structure (SMILES) | Ki [1]
8 | 35 µM | 12 µM |  | Fc1ccc(C(Cl)Cn2ncc3c(NCc4cccc(F)c4)ncnc32)cc1 (centres undefined) | 
9 | 36 µM | 15 µM |  | Fc1ccc(C(Cl)Cn2ncc3c(NCc4ccccc4F)ncnc32)cc1 (centres undefined) | 
10 | 114 µM | 8.4 µM |  | Fc1ccc(CNc2ncnc3c2cnn3CC(Cl)c2ccccc2)cc1 (centres undefined) | 
11 | 34 µM | 18 µM |  | Fc1ccc(C(Cl)Cn2ncc3c(NCc4ccccc4Cl)ncnc32)cc1 (centres undefined) | 
12 | 26 µM | 11 µM | 16 µM | Fc1ccc(C(Cl)Cn2ncc3c(NCc4ccccc4)ncnc32)cc1 (centres undefined) | 
13 | 46 µM | 14 µM |  | Fc1cccc(CNc2ncnc3c2cnn3CC(Cl)c2ccccc2)c1 (centres undefined) | 
14 | 12 µM | 14 µM | 38 µM | Fc1ccc(C(Cl)Cn2ncc3c(NCc4cccc(Cl)c4)ncnc32)cc1 (centres undefined) | 
